Assay [1] deals with antibody-regulated DNA-nanoswitch variant #2 (DNA, hairpin) TCCGTTTTTTTTTTTTTTTTCGGA
Description: fluorescence anisotropy titration. Particulars: 150 mM NaCl, 10 mM MgCl2; 50 mM sodium phosphate pH 7.0, 25 °C; 100 nM doxorubicin titrated with DNA.

For assay [2], the system named is antibody-regulated DNA-nanoswitch variant #1 (DNA, hairpin) TAGTTTTTTTTTTTTTTTTCTA
Description: fluorescence anisotropy titration. Particulars: 150 mM NaCl, 10 mM MgCl2; 50 mM sodium phosphate pH 7.0, 25 °C; 100 nM doxorubicin titrated with DNA.

Assay [3] concerns TBP-regulated DNA-nanoswitch variant #2 (DNA, hairpin) CTATATAAAGCCCTTTTATATATCTTGGGTAGGGC
Description: fluorescence anisotropy titration. Particulars: 150 mM NaCl, 10 mM MgCl2; 50 mM sodium phosphate pH 7.0, 25 °C; 100 nM doxorubicin titrated with DNA.

The subject of assay [4] is TBP-regulated DNA-nanoswitch variant #3 (DNA, hairpin) CTATATAAACCGCCCTTTTATATATCTTGGGTAGGGCGG
The assay can be described thus: fluorescence anisotropy titration. Particulars: 150 mM NaCl, 10 mM MgCl2; 50 mM sodium phosphate pH 7.0, 25 °C; 100 nM doxorubicin titrated with DNA.

The test system of assay [5] is antibody-regulated DNA-nanoswitch variant #3 (DNA, hairpin) TCGCCGTTTTTTTTTTTTTTTTCGGCGA
Description: fluorescence anisotropy titration. The note with it: 150 mM NaCl, 10 mM MgCl2; 50 mM sodium phosphate pH 7.0, 25 °C; 100 nM doxorubicin titrated with DNA.

The test system of assay [6] is TBP-regulated DNA-nanoswitch variant #1 (DNA, hairpin) CTATATAAACCTTTTATATATCTTGGGTAGG
Description: fluorescence anisotropy titration. Particulars: 150 mM NaCl, 10 mM MgCl2; 50 mM sodium phosphate pH 7.0, 25 °C; 100 nM doxorubicin titrated with DNA.

The subject of assay [7] is TBP-regulated control #1 (lacks GC-rich stem) (DNA, hairpin) TTATATAAATTTTTTATATATTTTTTTTATT
The assay can be described thus: fluorescence anisotropy. The note with it: 150 mM NaCl, 10 mM MgCl2; 50 mM sodium phosphate pH 7.0, 25 °C; equimolar doxorubicin and DNA, 100 nM.

Consider `COc1cccc2c1C(=O)c1c(O)c3c(c(O)c1C2=O)C[C@@](O)(C(=O)CO)C[C@@H]3O[C@H]1C[C@H](N)[C@H](O)[C@H](C)O1`, for which the binding entry was “yes” in assay [1]; “weak” in assay [2]; “yes” in assay [3]; “yes” in assay [4]; “yes” in assay [5]; “yes” in assay [6]. Further, the binding entry in assay [7] is listed as “weak”.

Values taken from paper PMC5452262 (2016).
